In data set [1] the test system is Plasmodium berghei. Description: Antiplasmodial activity against Plasmodium berghei infected in NMRI mouse assessed as reduction in parasitemia at 30 mg/kg, po administered at 4, 24, 48, 72 hrs post infection measured on day 4 by Peter's test relative to control. It is filed as functional. On the set-up: scale not given: the % may be the effect or the level left.

Data set [2] has as its system Plasmodium berghei. Description: Antiplasmodial activity against Plasmodium berghei infected in NMRI mouse assessed as mean survival time at 30 mg/kg, po administered at 4, 24, 48, 72 hrs post infection by Peter's test (reference value: 6 to 7 day). It is filed as functional.
For data set [3], the system named is Plasmodium berghei. Nature of the data set: Antiplasmodial activity against Plasmodium berghei infected in NMRI mouse assessed as parasite-free mouse at 30 mg/kg, po administered at 4, 24, 48, 72 hrs post infection measured on day 30 by Peter's test. It is filed as functional, organism-based.
In data set [4] the test system is Plasmodium falciparum. Description: Antiplasmodial activity against chloroquine-sensitive asexual blood stages of Plasmodium falciparum 3D7 after 72 hrs by HRP2-based ELISA. It is filed as functional. Particulars: 3D7, 72 h.
Data set [5] has as its system Plasmodium falciparum. Description: Antiplasmodial activity against multidrug-resistant asexual blood stages of Plasmodium falciparum Dd2 after 72 hrs by HRP2-based ELISA. It is filed as functional. Particulars: Dd2, 72 h.
Data set [6] deals with HepG2. Nature of the data set: Cytotoxicity against human HepG2 cells by CellTiterGlo assay. It is filed as cell-based.
A short description of data set [7]: Selectivity index, ratio of IC50 for human HepG2 cells to IC50 for chloroquine-sensitive asexual blood stages of Plasmodium falciparum 3D7. It is filed as toxicity. As to conditions: read-out: Ratio IC50.
Data set [8] relates to Plasmodium berghei. Description: Antiplasmodial activity against Plasmodium berghei infected in NMRI mouse assessed as reduction in parasitemia at 50 mg/kg, ip administered at 4, 24, 48, 72 hrs post infection measured on day 4 post infection by Peter's test relative to control. It is filed as functional. Also on record: scale not given: the % may be the effect or the level left.

In data set [9] the test system is Plasmodium berghei. Nature of the data set: Antiplasmodial activity against Plasmodium berghei infected in NMRI mouse assessed as mean survival time at 50 mg/kg, ip administered at 4, 24, 48, 72 hrs post infection by Peter's test (reference value: 6 to 7 day). It is filed as functional.
Data set [10] deals with Plasmodium berghei. Nature of the data set: Antiplasmodial activity against Plasmodium berghei infected in NMRI mouse assessed as reduction in parasitemia at 50 mg/kg, po administered at 4, 24, 48, 72 hrs post infection measured on day 4 post infection by Peter's test relative to control. It is filed as functional. On the set-up: scale not given: the % may be the effect or the level left.

Data set [11] has as its system Plasmodium berghei. Description: Antiplasmodial activity against Plasmodium berghei infected in NMRI mouse assessed as mean survival time at 50 mg/kg, po administered at 4, 24, 48, 72 hrs post infection by Peter's test (reference value: 6 to 7 day). It is filed as functional.
Data set [12] has as its system Plasmodium berghei. Description: Antiplasmodial activity against Plasmodium berghei infected in NMRI mouse assessed as parasite-free mouse at 50 mg/kg, po administered at 4, 24, 48, 72 hrs post infection measured on day 30 by Peter's test. It is filed as functional, organism-based.
Data set [13] has as its system Mus musculus. Description: Toxicity in NMRI mouse infected with Plasmodium berghei assessed as reduction in physical activity at 50 mg/kg, ip administered at 4, 24, 48, 72 hrs post infection. It is filed as organism-based. As to conditions: in vivo.
In data set [14] the test system is Mus musculus. Description: Toxicity in NMRI mouse infected with Plasmodium berghei assessed as diarrhea at 50 mg/kg, ip administered at 4, 24, 48, 72 hrs post infection. It is filed as organism-based. Particulars: in vivo.
Data set [15] concerns Plasmodium berghei. Description: Antiplasmodial activity against Plasmodium berghei infected in NMRI mouse assessed as parasite-free mouse at 50 mg/kg, ip administered at 4, 24, 48, 72 hrs post infection measured on day 30 by Peter's test. It is filed as functional, organism-based.
The subject of data set [16] is Mus musculus. Description: Toxicity in NMRI mouse infected with Plasmodium berghei assessed as overt toxicity at 50 mg/kg, ip administered at 4, 24, 48, 72 hrs post infection. It is filed as organism-based. As to conditions: in vivo.
Data set [17] concerns Plasmodium falciparum. Nature of the data set: Gametocytocidal activity against transgenic GFP-fused Plasmodium falciparum NF54 […] stage gametocytes after 72 hrs by Mitotracker Red CMH2XRos staining based confocal microscopic method. It is filed as functional. Particulars: NF54, 72 h.
The test system of data set [18] is Plasmodium falciparum. Description: Gametocytocidal activity against transgenic GFP-fused Plasmodium falciparum NF54 early stage gametocytes after 72 hrs by Mitotracker Red CMH2XRos staining based confocal microscopic method. It is filed as functional. As to conditions: NF54, 72 h.
Data set [19] relates to Plasmodium berghei. Nature of the data set: […] activity against GFP-fused Plasmodium berghei liver stage parasites infected in human HepG2-A16-CD81-EGFP cells after 48 hrs by luciferase reporter gene assay. It is filed as functional.

pIC50: −log10 of the molar value. Calls of active or inactive are those of the source. No cut-off for these calls is given here. Where only a bound is given, the exact number is not on record here.

In the case of `C[C@H]1[C@H](OC(=O)CCC(=O)O)O[C@@H]2O[C@@]3(C)CC[C@H]4[C@H](C)CC[C@@H]1[C@@]24OO3` [ARTESUNATE], the Activity in data set [1] is on record as 99%. Further, in data set [2], the MST was found to be 10 days. Besides, the result in data set [3] was inactive.

`CCN(CC)Cc1cc(/C=N/N=C(\N)CC(O)c2cc3ccccc3c3ccccc23)ccc1O` (stereo unspecified): the pIC50 in data set [4] is 9.01; in [5], 8.47; in data set [6], 4.84. The selectivity ratio in [7] was determined as 14700. The Activity in data set [8] is reported as 99.7%; in data set [10], 99.9%; in data set [13] it was “Non-Toxic”; in data set [14] it was “Non-Toxic”. For the same compound, the MST is 30 days in [9] and 28.2 days in data set [11]. The result in data set [12] was inactive.

In the case of `CCCCC(/C=N/N=C(\N)CC(O)c1cc2ccccc2c2ccccc12)CCCC` (stereo unspecified), the pIC50 in [4] is 7.22; in data set [5], 7.04; in data set [6] it was 5.12. The selectivity ratio in data set [7] stood at 127.

Turning to `N/C(CC(O)c1cc2ccccc2c2ccccc12)=N\N=C\C1CCCCC1` (stereo unspecified), the negative logarithm of the IC50 (pIC50) in data set [4] is 6.48; in data set [5], 6.14; in data set [6], 4.56. The selectivity ratio in data set [7] is 83.

For `N/C(CC(O)c1cc2ccccc2c2ccccc12)=N\N=C\c1ccc(F)cc1` (stereo unspecified), the pIC50 in [5] was 8.94; in [6], less than 5.00. Further, the selectivity ratio in [7] is more than 1040.

As for `CCCCC(CCCC)=N/N=C(\N)CC(O)c1cc2ccccc2c2ccccc12` (stereo unspecified), the pIC50 in data set [4] is 8.08; in data set [5] it was 7.92; in data set [6], 5.07. In [7], the selectivity ratio worked out at 1040. The Activity in data set [8] was 64.8%; in [10], less than 40%; in data set [13] it was “Non-Toxic”; in data set [14], “Non-Toxic”. For the same compound, the MST in data set [9] was 7 days. In addition, the outcome in [15] and in [12] was inactive.

For the compound `CCN(CC)Cc1cc(/C=N/N=C(\N)CC(O)c2cc3ccccc3c3ccccc23)cc(CN(CC)CC)c1O` (stereo unspecified), the negative logarithm of the IC50 (pIC50) in data set [4] is 8.82; in data set [5], 8.48; in data set [6], 4.84. Further, in data set [7], the selectivity ratio was 9530. Moreover, the Activity in data set [8] was 99.8%; in data set [10] it was 96.7%; in data set [13] it was “Toxic”; in data set [14] it was “Toxic”. The MST in [9] and in data set [11] was 11 days each time. In addition, the outcome in [15] and in data set [12] was inactive.

Regarding `N/C(CC(O)c1cc2ccccc2c2ccccc12)=N\N=C\c1ccc(O)c(CN2CCOCC2)c1` (stereo unspecified), the pIC50 in data set [4] is 7.54; in [5] it was 7.36; in data set [6] it was 5.43. For the same compound, in data set [7], the selectivity ratio was found to be 128. Besides, the Activity in data set [8] is 91.3%; in data set [10], 89.7%; in data set [13], “Non-Toxic”; in [14] it was “Non-Toxic”. In addition, the figures for the MST in data set [9] and in data set [11] were 14 days and 9.7 days, respectively. The result in data set [15] and in data set [12] was inactive.

On to `CN(C)Cc1cc(/C=N/N=C(\N)CC(O)c2cc3ccccc3c3ccccc23)ccc1O` (stereo unspecified), for which the negative logarithm of the IC50 (pIC50) in data set [4] was 8.60; in data set [5], 9.01; in data set [6], 4.78. For the same compound, in data set [7], the selectivity ratio worked out at 6680. For the same compound, the Activity in data set [8] is 99.8%; in data set [10] it was 99.8%; in data set [13], “Non-Toxic”; in [14], “Non-Toxic”. Further, the figures for the MST in data set [9] and in data set [11] were 22 days and 24.7 days, respectively. The outcome in data set [15] and in data set [12] was inactive.

With `O[C@@H](c1cc(C(F)(F)F)nc2c(C(F)(F)F)cccc12)[C@H]1CCCCN1` [(S,R)-MEFLOQUINE], the Activity in data set [1] amounted to 99.9%. Moreover, the MST in [2] was determined as 29 days.

Turning to `CCN(CC)CCCC(C)Nc1ccnc2cc(Cl)ccc12` (stereo unspecified) [CHLOROQUINE], the outcome in data set [3] was inactive.

As to `N/C(CC(O)c1cc2ccccc2c2ccccc12)=N\N=C1CCCCCC1` (stereo unspecified), the pIC50 in data set [4] was 6.74; in [5], 6.85; in data set [6], 4.60. Further, the selectivity ratio in data set [7] was found to be 139. For the same compound, the outcome in data set [12] was inactive.

As to `N/C(CC(O)c1cc2ccccc2c2ccccc12)=N\N=C\c1ccc(O)c(CN2CCCCC2)c1` (stereo unspecified), the negative-log IC50 (pIC50) in data set [4] is 8.54; in data set [5] it was 8.27; in [6] it was 5.08. The selectivity ratio in [7] is 2900. Further, the Activity was 98.7% in [8], 99% in data set [10], “Non-Toxic” in data set [13] and “Non-Toxic” in data set [14]. The MST turned out to be 16.7 days in [9] and 10.3 days in data set [11]. Also, the result in data set [15] and in data set [12] was inactive.

For `CCN(CC)Cc1cc(/C=N/N=C(\N)CC(O)c2cc3c(Cl)cc(Cl)cc3c3cc(C(F)(F)F)ccc23)ccc1O` (stereo unspecified), the pIC50 in [4] is 8.16; in data set [5] it was 7.86; in data set [6], 4.37; in [17], 6.46; in data set [18] it was 6.34; in data set [19] it was 4.72. Moreover, the selectivity ratio in data set [7] was 6200. Besides, the Activity was 99.8% in data set [10] and “Non-Toxic” in data set [16]. In addition, the MST in data set [11] is 23 days. Further, in data set [12], the result was inactive.

As to `CN1CCN(Cc2cc(/C=N/N=C(\N)CC(O)c3cc4ccccc4c4ccccc34)ccc2O)CC1` (stereo unspecified), the negative-log IC50 (pIC50) in data set [4] is 8.28; in data set [5], 8.04; in data set [6], 5.08. In addition, the selectivity ratio in data set [7] worked out at 1620. In addition, the Activity is on record as 97.6% in data set [8], 98% in data set [10], “Non-Toxic” in data set [13] and “Non-Toxic” in data set [14]. Moreover, the MST in data set [9] worked out at 18 days; in [11], 16 days. For the same compound, the outcome in [15] and in [12] was inactive.

The compound `O=C1C(O)=C([C@H]2CC[C@H](c3ccc(Cl)cc3)CC2)C(=O)c2ccccc21` [ATOVAQUONE] had a pIC50 in [19] of 9.59.

For the compound `CCN(CC)Cc1cccc(/C=N/N=C(\N)CC(O)c2cc3ccccc3c3ccccc23)c1` (stereo unspecified), the negative logarithm of the IC50 (pIC50) in data set [4] is 7.60; in [5], 7.44; in [6], 4.78. Besides, the selectivity ratio in [7] is 664. Further, in [12], the result was inactive.

(Values after ChEMBL document CHEMBL4011644, “3-Hydroxy-N'-arylidenepropanehydrazonamides with Halo-Substituted Phenanthrene Scaffolds Cure P. berghei Infected Mice When Administered Perorally” (J Med Chem, 2017).)
